Experimental data taken from patent US20080292619A1, “Pharmaceutical Composition Containing Meltrin Antagonist” (MOCHIDA PHARMACEUTICAL CO., LTD., priority 2004, published 2008).
In the oligonucleotide strings, read from the 5' end, every base follows the letter of its sugar. An asterisk marks phosphorothioate; unmarked linkages are phosphodiester. Other units and linkages are bracketed, terminal groups are in braces. A string of capitals states the bases alone. d = 2'-deoxy (DNA)

System: human meltrin α RNA
Assay: Suppression of human meltrin α expression by antisense compound in RD cell (real time PCR)
Assay type: cell-based
Conditions: 50 nM; RD cell; corrected by GAPDH
Procedure: First, RD cell (ATCC) was suspended in DMEM containing 10% fetal bovine serum (FBS, SIGMA), and the suspension was inoculated in 6 well culture plate at 2.5×10^5 cells/well/2 mL. After incubating overnight at 37° C. in the presence of 5% CO2, the cells were washed twice with serum-free DMEM, and Opti-MEM medium (GIBCO) was added at 800 μL/well.
Gene transfection reagent Lipofectin (Invitrogen) was diluted with Opti-MEM to 20 μg/mL, and the dilution was allowed to stand at room temperature for 30 minutes. Next, the antisense oligodeoxynucleotide synthesized as described above was heated at 90° C. for 3 minutes, and after quenching on ice, diluted with Opti-MEM to a concentration 10 times higher than the final concentration. Equal amounts of the Lipofectin in Opti-MEM and the antisense oligo DNA in Opti-MEM were mixed, and the mixture was incubated at room temperature for 15 minutes and added to 6 well plate at 200 μL/well.
The culture was incubated at 37° C. for 4 hours in the presence of 5% CO2, and the culture supernatant containing the Lipofectin was removed. The cells were washed twice with serum-free DMEM, and after adding 1 mL/well of Opti-MEM and incubating for 18 hours at 37° C. in the presence of 5% CO2, the cells were subjected to the measurement of the level of expression of meltrin α RNA.
After the washing, RNA was isolated from the cell by using RNA isolation kit (RNeasy Micro Kit, QIAGEN) according to the protocol of the kit, and RNA concentration was determined by measuring absorbance at a wavelength of 260 nm with a spectrophotometer (Nano prop, LMS Co., Ltd.) (1OD=40 μg/mL). After the quantitation, the RNA was prepared to a concentration of 0.1 μg/μL by using DEPC-treated water.
0.35 μg of the isolated RNA, and 3.5 μL of 10× TaqMan buffer, 7.7 μL of 25 mM MgCl2, 7.0 μL of 2.5 mM each dNTP Mix, 1.75 μL of 50 μM Random Hexamers, 0.7 μL of 20 U/μL RNase inhibitor, and 0.9 μL of 50 U/μL MultiScribe Reverse Transcriptase (all purchased from Applied Biosystems) were mixed, and water was added to make up the total volume to 35 μL. This solution was maintained at 25° C. for 10 minutes, at 48° C. for 30 minutes, and at 95° C. for 5 minutes, and reverse transcription was conducted to synthesize cDNA.
A solution in total volume of 20 μL containing 10 μL of TaqMan Universal PCR Master Mix, 0.4 μL of 10 μM TaqMan MGB Probe (sequence 5′FAM-caccgaaggacaatccca-MGB-3′: Applied Biosystems), 0.1 μL of 50 μM Forward primer (sequence ggaagccgccagattcct) for detecting meltrin α, 0.1 μL of 50 μM Reverse primer (sequence […]) for detecting meltrin α (all purchased from Sigma-Genosys), 5 μL of the cDNA solution of (3), and 4.4 μL of water was prepared, and after maintaining the solution at 50° C. for 2 minutes and at 95° C. for 10 minutes, PCR was conducted by repeating 40 cycles of 95° C. for 15 seconds and 60° C. for 1 minute in ABI Prism 7000.
The amount of the human meltrin α RNA was measured by conducting real time PCR by using the plasmid containing the cDNA coding for the human meltrin α for the template to generate the standard curve, and calculating RNA copy number of the meltrin α in each sample. The level of expression of GAPDH was also determined by using a primer and probe set for real time PCR of human GAPDH (Pre-Developed TaqMan Assay Reagents Human GAPDH (20×) (Cat# 4310884E, Applied Biosystems).
The results of the real time PCR of the meltrin α was corrected by the level of expression of the GAPDH to calculate the suppression rate. […]

Row | Substance | suppression rate of expression, 50 nM
1 | H138: cactcgctgagttgactggg (CACTCGCTGAGTTGACTGGG; antisense; DNA, all phosphorothioate, methylation of C not given here) | ++ (“++” when the suppression rate was at least 50%)
2 | H219: ttcaaggggatgctgcccaa (dT*dT*dC*dA*dA*dG*dG*dG*dG*dA*dT*dG*dC*dT*dG*dC*dC*dC*dA*dA; antisense) | + (“+” when the suppression rate was at least 30%)
3 | H130 + 15: tggccgaggtgagcctgaca (TGGCCGAGGTGAGCCTGACA; antisense; DNA, all phosphorothioate, methylation of C not given here) | ++ (“++” when the suppression rate was at least 50%)
4 | H137 + 3: ggggctgagggacattcagg (GGGGCTGAGGGACATTCAGG; antisense; DNA, all phosphorothioate, methylation of C not given here) | ++ (“++” when the suppression rate was at least 50%)
5 | H145 + 2: ttctggccagaggatctgca (dT*dT*dC*dT*dG*dG*dC*dC*dA*dG*dA*dG*dG*dA*dT*dC*dT*dG*dC*dA; antisense) | +++ (“+++” when the suppression rate was at least 70%)
6 | H144 + 16: ccagaggatctgcaggcaga (CCAGAGGATCTGCAGGCAGA; antisense; DNA, all phosphorothioate, methylation of C not given here) | ++ (“++” when the suppression rate was at least 50%)
7 | H143 + 9: gaggggggtttggcttacag (GAGGGGGGTTTGGCTTACAG; antisense; DNA, all phosphorothioate, methylation of C not given here) | + (“+” when the suppression rate was at least 30%)
8 | H137 + 2: gggctgagggacattcaggc (GGGCTGAGGGACATTCAGGC; antisense; DNA, all phosphorothioate, methylation of C not given here) | +++ (“+++” when the suppression rate was at least 70%)
9 | H144 + 8: tctgcaggcagaggcttctg (TCTGCAGGCAGAGGCTTCTG; antisense; DNA, all phosphorothioate, methylation of C not given here) | + (“+” when the suppression rate was at least 30%)
10 | H144 + 13: gaggatctgcaggcagaggc (GAGGATCTGCAGGCAGAGGC; antisense; DNA, all phosphorothioate, methylation of C not given here) | ++ (“++” when the suppression rate was at least 50%)
11 | H144 + 7: ctgcaggcagaggcttctga (CTGCAGGCAGAGGCTTCTGA; antisense; DNA, all phosphorothioate, methylation of C not given here) | ++ (“++” when the suppression rate was at least 50%)

Same assay, conditions: 200 nM; RD cell; corrected by GAPDH

Row | Substance | suppression rate of expression, 200 nM
12 | H109: tcatcgcccaagtacacgtg (dT*dC*dA*dT*dC*dG*dC*dC*dC*dA*dA*dG*dT*dA*dC*dA*dC*dG*dT*dG; antisense) | ++ (“++” when the suppression rate was at least 50%)
13 | H250: atctaaggatttgggcatct (DNA dA*dT*dC*dT*dA*dA*dG*dG*dA*dT*dT*dT*dG*dG*dG*dC*dA*dT*dC*dT; antisense) | + (“+” when the suppression rate was at least 30%)
14 | H138: cactcgctgagttgactggg (CACTCGCTGAGTTGACTGGG; antisense; DNA, all phosphorothioate, methylation of C not given here) | +++ (“+++” when the suppression rate was at least 70%)
15 | H219: ttcaaggggatgctgcccaa (dT*dT*dC*dA*dA*dG*dG*dG*dG*dA*dT*dG*dC*dT*dG*dC*dC*dC*dA*dA; antisense) | +++ (“+++” when the suppression rate was at least 70%)
16 | H168: caagcaggatatttcaagtt (dC*dA*dA*dG*dC*dA*dG*dG*dA*dT*dA*dT*dT*dT*dC*dA*dA*dG*dT*dT; antisense) | + (“+” when the suppression rate was at least 30%)
17 | H041: gcttcttcgctgggaagagt (GCTTCTTCGCTGGGAAGAGT; antisense; DNA, all phosphorothioate, methylation of C not given here) | + (“+” when the suppression rate was at least 30%)
18 | H063: catgccgatggtggtccctt (dC*dA*dT*dG*dC*dC*dG*dA*dT*dG*dG*dT*dG*dG*dT*dC*dC*dC*dT*dT; antisense) | ++ (“++” when the suppression rate was at least 50%)
19 | H237: gtgtcacgtgtttagtttat (DNA dG*dT*dG*dT*dC*dA*dC*dG*dT*dG*dT*dT*dT*dA*dG*dT*dT*dT*dA*dT; antisense) | + (“+” when the suppression rate was at least 30%)
20 | H037: ataagtcccctgagaccaga (ATAAGTCCCCTGAGACCAGA; antisense; DNA, all phosphorothioate, methylation of C not given here) | + (“+” when the suppression rate was at least 30%)
21 | H105: ggcattggtaccaatgactg (dG*dG*dC*dA*dT*dT*dG*dG*dT*dA*dC*dC*dA*dA*dT*dG*dA*dC*dT*dG; antisense) | + (“+” when the suppression rate was at least 30%)
22 | H099: aggatcacctgcagaattga (dA*dG*dG*dA*dT*dC*dA*dC*dC*dT*dG*dC*dA*dG*dA*dA*dT*dT*dG*dA; antisense) | + (“+” when the suppression rate was at least 30%)
23 | H171: gggactgctttccaataagg (dG*dG*dG*dA*dC*dT*dG*dC*dT*dT*dT*dC*dC*dA*dA*dT*dA*dA*dG*dG; antisense) | ++ (“++” when the suppression rate was at least 50%)
24 | H165: aaaactcagtgatggtaaaa (dA*dA*dA*dA*dC*dT*dC*dA*dG*dT*dG*dA*dT*dG*dG*dT*dA*dA*dA*dA; antisense) | + (“+” when the suppression rate was at least 30%)
25 | H076: tccaggctggtctccaagtc (dT*dC*dC*dA*dG*dG*dC*dT*dG*dG*dT*dC*dT*dC*dC*dA*dA*dG*dT*dC) | ++ (“++” when the suppression rate was at least 50%)
26 | H170: ccttgatcagaaagcaaaca (dC*dC*dT*dT*dG*dA*dT*dC*dA*dG*dA*dA*dA*dG*dC*dA*dA*dA*dC*dA; antisense) | + (“+” when the suppression rate was at least 30%)
27 | H117: gcagtggcagttcttcctgt (GCAGTGGCAGTTCTTCCTGT; antisense; DNA, all phosphorothioate, methylation of C not given here) | + (“+” when the suppression rate was at least 30%)
28 | H088: gagtccctgcacgctgttcc (dG*dA*dG*dT*dC*dC*dC*dT*dG*dC*dA*dC*dG*dC*dT*dG*dT*dT*dC*dC; antisense) | + (“+” when the suppression rate was at least 30%)
29 | H229: aaagaaggctttctcataaa (dA*dA*dA*dG*dA*dA*dG*dG*dC*dT*dT*dT*dC*dT*dC*dA*dT*dA*dA*dA; antisense) | + (“+” when the suppression rate was at least 30%)
30 | H045: agagggtggtggaaacacat (AGAGGGTGGTGGAAACACAT; antisense; DNA, all phosphorothioate, methylation of C not given here) | ++ (“++” when the suppression rate was at least 50%)

Same assay, conditions: 200 nM; chimeric 2′-methoxy antisense oligonucleotides; RD cell

Row | Substance | suppression rate of expression, 200 nM
31 | H077-OMe2: chimeric antisense oligonucleotide AAACAggcacaccccCATTC, uppercase 2′-methoxy nucleotides, lowercase phosphorothioate nucleotides (AAACAGGCACACCCCCATTC; 2'-O-methyl at 1, 2, 3, 4, 5, 16, 17, 18, 19, 20, other sugars, backbone and T or U not given here; lowercase gap nucleotides phosphorothioate) | + (“+” when the suppression rate was at least 30%)
